Test system: DMPK
Assay: DMPK knockdown by transfected antisense oligonucleotides in DM1 C15 myotubes at 0.5 nM and 50 nM
Assay type: cell-based
Conditions: 72 hours, qPCR; for Percent DMPK Reduction: relative to vehicle control; for Normalized DMPK Remaining: relative to vehicle control = 1.00
Description: Two hundred and thirty-six oligonucleotides for targeting DMPK were generated using in silico analysis. Each individual oligonucleotide was evaluated for their ability to target DMPK in cellulo at two doses—0.5 nM (low dose) and 50 nM (high dose).
Briefly, DM1 C15 immortalized myoblasts were cultured in T-75 flasks until near confluency (˜80% confluent). Myoblasts were then disrupted with trypsin and seeded into 96-well microplates at a density of 50,000 cells/well. Cells were allowed to recover overnight before the growth media was washed out and replaced with a no-serum media to induce differentiation into myotubes. Differentiation proceeded for seven days prior to treatment with DMPK-targeting oligonucleotides.
On day seven following induction of differentiation, DM1 C15 myotubes were transfected with an individual oligonucleotide using 0.3 μL of Lipofectamine MessengerMax per well. All oligonucleotides were tested at both 0.5 nM and 50 nM final concentrations in biological triplicates. After treatment with oligonucleotides, cells were incubated for 72 hours prior to being harvested for total RNA. cDNA was synthesized from the total RNA extracts and qPCR was performed to determine expression levels of DMPK in technical quadruplicate. All qPCR data were analyzed using a traditional […] method and were normalized to a plate-based negative control that comprised cells treated with vehicle control (0.3 μL/well Lipofectamine MessengerMax without any oligonucleotide). Results from these experiments are shown in Table 10. ‘Normalized DMPK Remaining’ for each antisense oligonucleotide in Table 10 refers to the expression level of DMPK in cell treated with said antisense oligonucleotide relative to the negative control that comprised cells treated with vehicle control (wherein the expression level of the negative control has been normalized to equal 1.00)

Row | Substance | Percent DMPK Reduction (0.5 nM oligonucleotide) | Normalized DMPK Remaining (0.5 nM oligonucleotide) | Percent DMPK Reduction (50 nM oligonucleotide) | Normalized DMPK Remaining (50 nM oligonucleotide)
1 | 246 (GGACGGCCCGGCUUGCUGCC; chemistry not given here) [compound 246] | 58.25% | 0.42 | 69.30% | 0.31
2 | 247 (GGGCCCGGAUCACAGGACUG; chemistry not given here) [compound 247] | 57.97% | 0.42 | 61.96% | 0.38
3 | 248 (CAAACUUGCUCAGCAGUGUC; chemistry not given here) [compound 248] | 31.45% | 0.69 | 53.93% | 0.46
4 | 249 (AAACUUGCUCAGCAGUGUCA; chemistry not given here) [compound 249] | 30.85% | 0.69 | 50.69% | 0.49
5 | 250 (CGGAUGGCCUCCAUCUCCCG; chemistry not given here) [compound 250] | 28.92% | 0.71 | 55.57% | 0.44
6 | 251 (CUCGGCCGGAAUCCGCUCCC; chemistry not given here) [compound 251] | 28.64% | 0.71 | 64.75% | 0.35
7 | 252 (UCUCGGCCGGAAUCCGCUCC; chemistry not given here) [compound 252] | 27.88% | 0.72 | 67.46% | 0.33
8 | 253 (UGCUCAGCAGUGUCAGCAGG; chemistry not given here) [compound 253] | 27.08% | 0.73 | 65.78% | 0.34
9 | 254 (UUGUCGGGUUUGAUGUCCCU; chemistry not given here) [compound 254] | 34.16% | 0.66 | 55.56% | 0.44
10 | 255 (GUUGCGGGUUUGAUGUCCC; chemistry not given here) [compound 255] | 33.31% | 0.67 | 61.07% | 0.39
11 | 256 (UCCGCCAGGUAGAAGCGCGC; chemistry not given here) [compound 256] | 27.99% | 0.72 | 80.06% | 0.20
12 | 258 (AACUUGCUCAGCAGUGUCAG; chemistry not given here) [compound 258] | 19.81% | 0.80 | 52.64% | 0.47
13 | 259 (CAGCUGCGUGAUCCACCGCC; chemistry not given here) [compound 259] | 19.03% | 0.81 | 68.34% | 0.32
14 | 261 (GAAGUCGGCCAGGCGGAUGU; chemistry not given here) [compound 261] | 18.36% | 0.82 | 44.04% | 0.56
15 | 262 (UGUCGGGUUUGAUGUCCCUG; chemistry not given here) [compound 262] | 30.09% | 0.70 | 68.14% | 0.32
16 | 263 (GGAUGGCCUCCAUCUCCCGG; chemistry not given here) [compound 263] | 24.93% | 0.75 | 60.77% | 0.39
17 | 264 (AGGAUGUUGUCGGGUUUGAU; chemistry not given here) [compound 264] | 24.19% | 0.76 | 39.48% | 0.61
18 | 265 (GUCGGGUUUGAUGUCCCUGU; chemistry not given here) [compound 265] | 28.89% | 0.71 | 64.15% | 0.36

Row | Substance | Percent DMPK Reduction (0.5 nM oligonucleotide) | Normalized DMPK Remaining (0.5 nM oligonucleotide) | Percent DMPK Reduction (50 nM oligonucleotide) | Normalized DMPK Remaining (50 nM oligonucleotide)
19 | 266 (AAUACUCCAUGACCAGGUAC; chemistry not given here) [compound 266] | 28.86% | 0.71 | 52.07% | 0.48
20 | 267 (CUUGUUCAUGAUCUUCAUGG; chemistry not given here) [compound 267] | 16.06% | 0.84 | 49.47% | 0.51
21 | 268 (UCAGUGCAUCCAAAACGUGG; chemistry not given here) [compound 268] | 15.76% | 0.84 | 42.06% | 0.58
22 | 269 (CUGUCCCGGAGACCAUCCCA; chemistry not given here) [compound 269] | 35.85% | 0.64 | 50.78% | 0.49
23 | 271 (CCCACGUAAUACUCCAUGAC; chemistry not given here) [compound 271] | 28.21% | 0.72 | 45.94% | 0.54
24 | 273 (CUGUGCACGUAGCCAAGCCG; chemistry not given here) [compound 273] | 25.67% | 0.74 | 70.10% | 0.30
25 | 274 (UGCCCAUCCACGUCAGGGCC; chemistry not given here) [compound 274] | 13.63% | 0.86 | 33.09% | 0.67
26 | 275 (AGCGCCUCCGAUAGGCCAGG; chemistry not given here) [compound 275] | 21.19% | 0.79 | 61.91% | 0.38
27 | 276 (UGUGCACGUAGCCAAGCCGG; chemistry not given here) [compound 276] | 24.74% | 0.75 | 75.09% | 0.25
28 | 277 (GACCAGGUACAGGUAGUUCU; chemistry not given here) [compound 277] | 42.85% | 0.57 | 70.95% | 0.29
29 | 279 (CAUCUCGGCCGGAAUCCGCU; chemistry not given here) [compound 279] | 20.21% | 0.80 | 59.40% | 0.41
30 | 281 (ACAGCGGUCCAGCAGGAUGU; chemistry not given here) [compound 281] | 19.94% | 0.80 | 55.14% | 0.45
31 | 282 (AAAGCGCCUCCGAUAGGCCA; chemistry not given here) [compound 282] | 19.89% | 0.80 | 62.04% | 0.38
32 | 283 (GCCAAAGAAGAAGGGAUGUG; chemistry not given here) [compound 283] | 24.87% | 0.75 | 56.19% | 0.44
33 | 284 (CACGUAAUACUCCAUGACCA; chemistry not given here) [compound 284] | 24.40% | 0.76 | 46.50% | 0.54
34 | 285 (AUCUCGGCCGGAAUCCGCUC; chemistry not given here) [compound 285] | 11.61% | 0.88 | 65.98% | 0.34
35 | 287 (GCCAUCUCGGCCGGAAUCCG; chemistry not given here) [compound 287] | 18.56% | 0.81 | 86.39% | 0.14
36 | 289 (AUGACAAUCUCCGCCAGGUA; chemistry not given here) [compound 289] | 42.38% | 0.58 | 60.47% | 0.40
